Reference: patent US9751909B2, “Synthesis and uses of nucleic acid compounds with conformationally restricted monomers” (Marina Biotech, Inc., priority 2011, dated 2017)

How the values were obtained:
[1] = Tolerability in mice: body weight, clinical signs, spleen weight, serum chemistry; conditions: BALB/c mice
Method: Treatment groups (n=5) were injected intravenously at a 10 mg/kg dose with a dosing schedule of Q1d×3 (every day for three consecutive days). Necropsy was performed at 24 h after the last dose. Body weights and clinical signs were monitored during the course of the study. Liver and spleen were harvested.

microRNA-122 = assay: De-repression of downstream mRNAs of microRNA-122 in mouse liver by CRN-containing antimir; assay type: in vivo, mouse (BALB/c)
Text: The CRN-containing antimir CRN-Antimir-122-8a was synthesized by the methods of this invention. MicroRNA-122 is an miRNA shown to be liver-specific and involved in lipid metabolism and possibly hepatitis C virus replication. MicroRNA-122 regulates various downstream mRNAs. CRN-Antimir-122-8a is 16-mer oligonucleotide complementary to the 5′ end of microRNA-122 that can silence microRNA-122 and de-repress its downstream targets.
Liver and spleen were harvested.
The end points determined were expression of downstream genes AldoA (Aldolase A), P4H4 (Prolyl 4-hydroxylase gene), and SLC7A1 (Solute carrier family 7). Negative control was a mismatched Antimir-122 sequence.

[2] = 8-week old BALB/c mice, 10 mg/kg intravenously Q1d×3, necropsy 24 h after last dose

crnm5CsdCsdAscrnTscrnTsdGscrnTscrnm5CsdAscrnm5CsdAsdCsdTscrnm5Cscrnm5CsdA (antisense CCATTGTCACACTCCA; CRN nucleotides, phosphorothioate linkages; (1)..(16) Phosphorothioate linkage between nucleotides; modified_base (1)..(1) Conformationally restricted 5′-methyl nucleomonomer; modified_base (2)..(3) deoxy-nucleotide; modified_base (4)..(5) Conformationally restricted nucleomonomer; modified_base (6)..(6) deoxy-nucleotide; modified_base (7)..(7) Conformationally restricted nucleomonomer; modified_base (8)..(8) Conformationally restricted 5′-) [CRN-Antimir-122-8a, 16-mer oligonucleotide complementary to the 5′ end of microRNA-122; CRN/deoxy nucleotides with phosphorthioate linkages]
alterations in liver and kidney enzymes ([1]; 10 mg/kg intravenously Q1d×3): No alterations | body weight loss after dosing ([1]; 10 mg/kg intravenously Q1d×3): No body weight loss | other serum chemistry parameters ([1]; 10 mg/kg intravenously Q1d×3): within expected normal levels | tolerability ([1]; 10 mg/kg intravenously Q1d×3): well tolerated | spleen weights relative to buffer control ([1]; 10 mg/kg intravenously Q1d×3, necropsy 24 h after last dose): unaltered | de-repression in liver AldoA mRNA relative to buffer control (microRNA-122; [2]): Up to 2.5 fold | de-repression in liver P4H4 mRNA relative to buffer control (microRNA-122; [2]): Up to 1.5 fold | de-repression in liver SLC7A1 mRNA relative to buffer control (microRNA-122; [2]): Up to 1.3 fold | de-repression of downstream genes ALDOA, SLC7A, P4H4 in the mouse model (microRNA-122; mouse model, result in words): demonstrated de-repression
